Read-outs that look alike come from different tables or passages of the source.
Tests used:
[1] = test system: S. aureus ATCC 33591
Outline: (§1)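 Broth microdilution per CLSI in Müller-Hinton broth and modified LYM broth (pH 7.4; variants with 50–300 mM NaCl, 0.5–2.5 mM MgCl2, or pH 6.5–4.5). Inoculum 5 × 10^5 CFU/mL; peptides tested at 0.78–50 µg/mL final. MIC read; three independent repeats.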

[2] = test system: A. baumannii 14B0097 (Acinetobacter sp., BCRC number 14B0097)
Outline: as §1

[3] = test system: A. baumannii 14B0091 (Acinetobacter sp., BCRC number 14B0091)
Outline: as §1

[4] = test system: S. aureus ATCC 33593
Outline: as §1

[5] = test system: Escherichia coli (ATCC 25922)
Outline: as §1

[6] = test system: S. aureus ATCC 25923
Outline: as §1

[7] = test system: Gram-positive bacteria; assay: Geometric mean MIC and therapeutic index, Gram-positive bacteria; type: cell-based; settings: Gram-positive bacteria
Experimental: (§2) In this study, we aimed to investigate the potential of W5K series peptides for therapeutic use. To evaluate their efficacy for antibacterial therapy, we used the Therapeutic Index (TI) as a measure of their cell selectivity. The TI was calculated as the ratio of the concentration causing 10% hemolysis of human red blood cells (HC10) to the geometric mean minimum inhibitory concentration (GM) of the peptides against both Gram-negative and Gram-positive bacteria. This parameter was used to quantitatively assess the balance between antibacterial potency and cytotoxicity among the W5K derivatives.
(§3) The antibacterial activities of the peptides in Müller-Hinton (MH) broth and modified LYM broth were determined using the standard broth microdilution method as per Clinical and Laboratory Standards Institute (CLSI) guidelines. The LYM broth was prepared with specific components and adjusted to different conditions, including varying concentrations of NaCl and MgCl2, and different pH levels. To prepare the LYM broth, 5.4 mM KCl, 5.6 mM Na2HPO4, 0.5 mM MgSO4, and 1.0 mM sodium citrate were added. Additionally, 0.4 mg of ZnCl2, 2.0 mg of FeCl3·6H2O, 0.1 mg of CuSO4·5H2O, 0.1 mg of MnSO4·H2O, 0.1 mg of Na2B4O7∙10H2O, 700 mg of amino acid mixtures without tryptophan (Takara Bio Inc., San Jose, CA, USA), and 20 mg of L-tryptophan were added per liter of medium. The pH was adjusted to 7.4, and a vitamin mixture (100X, Sigma) and glucose concentration of 2% were added. For different conditions of LYM broth, NaCl concentrations of 300, 200, 150, and 50 mM, MgCl2 concentrations of 2.5, 1.5, and 0.5 mM, and pH levels of 6.5, 5.5, and 4.5 were adjusted. Bacterial strains were incubated in MH broth overnight, regrown, and diluted to a final concentration of 5 × 10^5 CFU/mL. Peptides were added to each well at final concentrations of 50, 25, 12.5, 6.25, 3.13, 1.56, and 0.78 µg/mL, and 99 µL of diluted microbes was loaded into each well of a polypropylene 96-well plate. […] The Morpheus HeatMap software (https://software.broadinstitute.org/morpheus/) was used to display MIC values on a color scale. All experiments were independently repeated three times.

[8] = test system: Both Gram-positive and -negative bacteria; assay: Geometric mean MIC, therapeutic index and fold changes of MIC, whole panel of strains; type: cell-based
Experimental: as §2, §3

[9] = LYM broth, 0 mM NaCl, 16 h, 37 °C
[10] = LYM broth, 50 mM NaCl, 16 h, 37 °C
[11] = LYM broth, 100 mM NaCl, 16 h, 37 °C
[12] = LYM broth, 200 mM (NaCl), 16 h, 37 °C
[13] = LYM broth, 300 mM (NaCl), 16 h, 37 °C
[14] = MH broth, 5 × 10^5 CFU/mL, 16 h, 37 °C, repeated three times

Substance: Ac-LKWLAKKKKWRKW-NH2 [Peptide W5K06]
- MIC [1, 9]: 12.5 µg/mL
- MIC ([1]; LYM broth, 0.5 mM MgCl2): 12.5 µg/mL
- MIC ([1]; LYM broth, 1.5 mM MgCl2): 12.5 µg/mL
- MIC ([1]; LYM broth, 2.5 mM MgCl2): 25 µg/mL
- MIC [1, 10]: 25 µg/mL
- MIC [1, 11]: 50 µg/mL
- MIC [1, 12]: 50 µg/mL
- MIC [1, 13]: >50 µg/mL
- MIC ([1]; LYM broth, pH 4.5): 12.5 µg/mL
- MIC ([1]; LYM broth, pH 5.5): 6.25 µg/mL
- MIC ([1]; LYM broth, pH 6.5): 6.25 µg/mL
- MIC [1, 14]: >50 µg/mL
- MIC [2, 9]: 3.13 µg/mL
- MIC ([2]; LYM broth, 0.5 mM MgCl2): 3.13 µg/mL
- MIC ([2]; LYM broth, 1.5 mM MgCl2): 3.13 µg/mL
- MIC ([2]; LYM broth, 2.5 mM MgCl2): 3.13 µg/mL
- MIC [2, 10]: 3.13 µg/mL
- MIC [2, 11]: 6.25 µg/mL
- MIC [2, 12]: 50 µg/mL
- MIC [2, 13]: >50 µg/mL
- MIC ([2]; LYM broth, pH 4.5): 3.13 µg/mL
- MIC ([2]; LYM broth, pH 5.5): 3.13 µg/mL
- MIC ([2]; LYM broth, pH 6.5): 1.56 µg/mL
- MIC [2, 14]: 50 µg/mL
- MIC [3, 9]: 3.13 µg/mL
- MIC ([3]; LYM broth, 0.5 mM MgCl2): 3.13 µg/mL
- MIC ([3]; LYM broth, 1.5 mM MgCl2): 3.13 µg/mL
- MIC ([3]; LYM broth, 2.5 mM MgCl2): 3.13 µg/mL
- MIC [3, 10]: 3.13 µg/mL
- MIC [3, 11]: 6.25 µg/mL
- MIC [3, 12]: 50 µg/mL
- MIC [3, 13]: >50 µg/mL
- MIC ([3]; LYM broth, pH 4.5): 3.13 µg/mL
- MIC ([3]; LYM broth, pH 5.5): 3.13 µg/mL
- MIC ([3]; LYM broth, pH 6.5): 1.56 µg/mL
- MIC [3, 14]: 50 µg/mL
- MIC [4, 9]: 12.5 µg/mL
- MIC ([4]; LYM broth, 0.5 mM MgCl2): 12.5 µg/mL
- MIC ([4]; LYM broth, 1.5 mM MgCl2): 25 µg/mL
- MIC ([4]; LYM broth, 2.5 mM MgCl2): 25 µg/mL
- MIC [4, 10]: 25 µg/mL
- MIC [4, 11]: 50 µg/mL
- MIC [4, 12]: >50 µg/mL
- MIC [4, 13]: >50 µg/mL
- MIC ([4]; LYM broth, pH 4.5): 12.5 µg/mL
- MIC ([4]; LYM broth, pH 5.5): 6.25 µg/mL
- MIC ([4]; LYM broth, pH 6.5): 6.25 µg/mL
- MIC [4, 14]: >50 µg/mL
- MIC [5, 9]: 6.25 µg/mL
- MIC ([5]; LYM broth, 0.5 mM MgCl2): 6.25 µg/mL
- MIC ([5]; LYM broth, 1.5 mM MgCl2): 6.25 µg/mL
- MIC ([5]; LYM broth, 2.5 mM MgCl2): 6.25 µg/mL
- MIC [5, 10]: 12.5 µg/mL
- MIC [5, 11]: 50 µg/mL
- MIC [5, 12]: >50 µg/mL
- MIC [5, 13]: >50 µg/mL
- MIC ([5]; LYM broth, pH 4.5): 12.5 µg/mL
- MIC ([5]; LYM broth, pH 5.5): 6.25 µg/mL
- MIC ([5]; LYM broth, pH 6.5): 3.13 µg/mL
- MIC [5, 14]: 25 µg/mL
- MIC [6, 9]: 6.25 µg/mL
- MIC ([6]; LYM broth, 0.5 mM MgCl2): 6.25 µg/mL
- MIC ([6]; LYM broth, 1.5 mM MgCl2): 6.25 µg/mL
- MIC ([6]; LYM broth, 2.5 mM MgCl2): 6.25 µg/mL
- MIC [6, 10]: 12.5 µg/mL
- MIC [6, 11]: 25 µg/mL
- MIC [6, 12]: 50 µg/mL
- MIC [6, 13]: >50 µg/mL
- MIC ([6]; LYM broth, pH 4.5): 6.25 µg/mL
- MIC ([6]; LYM broth, pH 5.5): 6.25 µg/mL
- MIC ([6]; LYM broth, pH 6.5): 3.13 µg/mL
- MIC [6, 14]: 50 µg/mL
- GM G+ (geometric mean of the MIC values) ([7]; MH broth, MIC >50 µg/mL counted as 100 µg/mL): 75.8 µg/mL
- Therapeutic Index (TI) G+ ([7]; HC10/GM): 1.4
- GM G−/+ (geometric mean of the MIC values) ([8]; Both Gram-positive and -negative bacteria, MH broth, MIC >50 µg/mL counted as 100 µg/mL): 57.4 µg/mL
- Therapeutic Index (TI) G−/+ ([8]; HC10/GM, both Gram-positive and -negative bacteria): 1.9
